Data set [1] deals with T1, Melanin-concentrating hormone receptor 1 (Homo sapiens, UniProt Q99705). In words: Binding affinity to human MCHR1.
The target in data set [2] is T1, Melanin-concentrating hormone receptor 1. In words: Antagonist activity at human MCHR1 by [35S]GTP-gamma-S binding assay. It is filed as functional. A general note: GTPγS is a poorly hydrolysed GTP analogue; its binding reports G protein activation.
The target of data set [3] is Cytochrome P450 2D6 (Homo sapiens, UniProt P10635). The experiment in a line: Inhibition of CYP2D6. It is filed as ADME. The following applies: for Activity: human.
Cytochrome P450 2D6, sequence (P10635 whole entry): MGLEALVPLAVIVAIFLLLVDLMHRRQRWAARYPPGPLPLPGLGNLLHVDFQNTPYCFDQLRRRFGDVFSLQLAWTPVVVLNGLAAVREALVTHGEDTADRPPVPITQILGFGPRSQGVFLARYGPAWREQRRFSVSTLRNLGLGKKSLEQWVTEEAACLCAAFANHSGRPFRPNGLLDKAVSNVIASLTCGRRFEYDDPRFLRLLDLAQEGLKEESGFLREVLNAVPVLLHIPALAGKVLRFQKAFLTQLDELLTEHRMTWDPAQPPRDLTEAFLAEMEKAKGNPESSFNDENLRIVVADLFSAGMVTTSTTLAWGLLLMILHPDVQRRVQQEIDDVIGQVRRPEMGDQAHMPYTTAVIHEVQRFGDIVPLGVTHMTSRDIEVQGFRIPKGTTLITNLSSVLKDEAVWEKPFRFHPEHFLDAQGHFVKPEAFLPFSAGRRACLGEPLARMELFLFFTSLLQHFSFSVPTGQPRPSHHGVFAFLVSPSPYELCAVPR
Data set [4] can be described thus: Intrinsic clearance in human liver microsome. It is filed as ADME. The following applies: liver microsomes.
Data set [5] addresses CYP2D6 (Homo sapiens, UniProt P10635). In words: Inhibition of CYP2D6 at 120 uM. It is filed as ADME.

Each structure is given as a SMILES string.

T1 sequence (Q99705 whole entry): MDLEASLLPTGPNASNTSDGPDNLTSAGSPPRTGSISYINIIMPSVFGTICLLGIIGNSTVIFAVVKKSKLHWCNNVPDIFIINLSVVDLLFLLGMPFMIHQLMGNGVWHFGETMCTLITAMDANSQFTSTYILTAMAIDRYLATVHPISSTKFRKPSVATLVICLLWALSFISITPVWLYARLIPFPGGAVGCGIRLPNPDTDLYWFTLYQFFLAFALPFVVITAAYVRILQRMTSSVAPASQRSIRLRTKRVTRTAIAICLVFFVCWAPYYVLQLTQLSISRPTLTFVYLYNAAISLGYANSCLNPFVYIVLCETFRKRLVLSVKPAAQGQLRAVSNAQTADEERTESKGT
CYP2D6, sequence (P10635 whole entry): as the sequence (P10635 whole entry) above

Compound `Cc1ccc(-c2cc3ncn([C@H]4CCN(C(=O)N(C)[C@H]5CCN(C)C5)C4)c(=O)c3s2)c(C)c1` registered a Ki in data set [1] of 49 nM.
In turn, `CN1CC[C@H](N(C)C(=O)N2CC[C@H](n3cnc4cc(-c5ccc(OC(F)(F)F)cc5)sc4c3=O)C2)C1` registered a Ki in data set [1] of 39 nM.
In turn, `COc1ccc(-c2cc3ncn([C@H]4CCN(C(=O)N(C)[C@H]5CCN(C)C5)C4)c(=O)c3s2)cc1` returned a Ki in data set [1] of 21 nM.
`COc1ccc(-c2cc3ncn([C@H]4CCN(C(=O)N(C)[C@H]5CCN(C)C5)C4)c(=O)c3s2)c(C)c1` came in with a Ki in data set [1] of 46 nM.
On to `CN(C(=O)N1CC[C@H](n2cnc3cc(-c4ccc(Cl)cc4)sc3c2=O)C1)[C@H]1CCN(CC2CCOC2)C1` (some centres not stated), for which affinity in data set [1] was put at a Ki of 4 nM. For the same compound, the IC50 in data set [2] worked out at 10 nM.
`CN1CC[C@H](N(C)C(=O)N2CC[C@H](n3cnc4cc(-c5ccc6c(c5)OCCO6)sc4c3=O)C2)C1`: in data set [1], the affinity corresponds to a Ki of 143 nM.
In turn, `CC(C)N1CC[C@H](N(C)C(=O)N2CC[C@H](n3cnc4cc(-c5ccc(Cl)cc5)sc4c3=O)C2)C1` came in with a Ki in data set [1] of 5 nM. Moreover, the IC50 in data set [2] is 23 nM.
Regarding `Cc1ccc(-c2cc3ncn([C@H]4CCN(C(=O)N(C)[C@H]5CCN(C6CCOCC6)C5)C4)c(=O)c3s2)cc1`, the affinity in data set [1], expressed as Ki, was 14 nM.
Consider `CCc1ccc(-c2cc3ncn([C@H]4CCN(C(=O)N(C)[C@H]5CCN(C6CCOCC6)C5)C4)c(=O)c3s2)cc1`, for which the Ki in data set [1] was found to be 8 nM. For the same compound, in data set [3], the Activity was found to be 57 µM. For the same compound, the intrinsic metabolic clearance (CLint scaled) in data set [4] came out at 85 mL/min/kg.
`CN(C(=O)N1CC[C@H](n2cnc3cc(-c4ccc(Cl)cc4)sc3c2=O)C1)[C@H]1CCN(C2CCOCC2)C1`: affinity in data set [1] was put at a Ki of 3 nM. Also, the values for the IC50 in data set [2] and in data set [3] were 23 nM and 22500 nM, respectively. This compound showed a CLint scaled in data set [4] of 24 mL/min/kg.
In the case of `CN(C(=O)N1CC[C@H](n2cnc3cc(-c4ccc(C(F)(F)F)cc4)sc3c2=O)C1)[C@H]1CCN(C2CCOCC2)C1`, in data set [1], affinity was put at a Ki of 19 nM.
On to `CN(C(=O)N1CC[C@H](n2cnc3cc(-c4ccc(Cl)cc4)sc3c2=O)C1)[C@H]1CCN(C2CCCC2)C1`, for which the Ki in data set [1] is 4 nM. In addition, in data set [2], the IC50 amounted to 13 nM.
`CN(C(=O)N1CC[C@H](n2cnc3cc(-c4ccc(Cl)cc4)sc3c2=O)C1)[C@H]1CCN(CCC2CCOCC2)C1` returned a Ki in data set [1] of 7 nM. Also, the IC50 in data set [2] came to 11 nM.
In data set [1], `COc1ccc(-c2cc3ncn([C@H]4CCN(C(=O)N(C)[C@H]5CCN(C6CCOCC6)C5)C4)c(=O)c3s2)c(C)c1` displayed a Ki of 28 nM.
The same measure, in the same setting: the same measure for `CCOc1ccc(-c2cc3ncn([C@H]4CCN(C(=O)N(C)[C@H]5CCN(C6CCOCC6)C5)C4)c(=O)c3s2)c(Cl)c1`: 14 nM.
In data set [1], `CN(C(=O)N1CC[C@H](n2cnc3cc(-c4ccc(Cl)cc4)sc3c2=O)C1)[C@H]1CCN(C2CCC(C)(C)CC2)C1` registered a Ki of 2 nM. The IC50 in data set [2] was 10 nM; in data set [3], 3400 nM.
`CN(C(=O)N1CC[C@H](n2cnc3cc(-c4ccc(Cl)cc4)sc3c2=O)C1)[C@H]1CCN(CC(=O)C(C)(C)C)C1` had a Ki in data set [1] of 17 nM. In addition, in data set [2], the IC50 is 44 nM.
The compound `CN(C(=O)N1CC[C@H](n2cnc3cc(-c4ccc(Cl)cc4)sc3c2=O)C1)[C@H]1CCN(CCCc2ccccc2)C1` displayed a Ki in data set [1] of 6 nM. For the same compound, the IC50 in data set [2] is 31 nM; in data set [3], 8600 nM. The compound further yielded a CLint scaled in data set [4] of 41 mL/min/kg.
`CN(C(=O)N1CC[C@H](n2cnc3cc(-c4ccc(OC(F)(F)F)cc4)sc3c2=O)C1)[C@H]1CCN(C2CCOCC2)C1` had a Ki in data set [1] of 18 nM.
In data set [1], `CN(C(=O)N1CC[C@@H](n2cnc3cc(-c4ccc(Cl)cc4)sc3c2=O)C1)[C@@H]1CCN(C2CCOCC2)C1` came in with a Ki of 69 nM.
Regarding `Cc1ccc(-c2cc3ncn([C@H]4CCN(C(=O)N(C)[C@H]5CCN(C)C5)C4)c(=O)c3s2)cc1`, the affinity in data set [1], expressed as Ki, was 15 nM.
Turning to `CCc1ccc(-c2cc3ncn([C@H]4CCN(C(=O)N(C)[C@H]5CCN(C)C5)C4)c(=O)c3s2)cc1`, in data set [1], the Ki worked out at 5 nM. The inhibition at 120 µM in data set [5] was 42%. The compound further had a CLint scaled in data set [4] of 200 mL/min/kg.
In the case of `CN(C(=O)N1CC[C@H](n2cnc3cc(-c4ccc(Cl)cc4)sc3c2=O)C1)[C@H]1CCN(Cc2ccoc2)C1`, the affinity in data set [1], expressed as Ki, was 4 nM. The compound also gave an IC50 in data set [2] of 15 nM.
The matching figures for `CN(C(=O)N1CC[C@H](n2cnc3cc(-c4ccc(Cl)cc4)sc3c2=O)C1)[C@H]1CCN(CC2CCCCC2)C1`: 50 nM and 53 nM.
`CN(C(=O)N1CC[C@H](n2cnc3cc(-c4ccc(Cl)cc4)sc3c2=O)C1)[C@H]1CCN(C2CCC2)C1` yielded a Ki in data set [1] of 1 nM. Besides, in data set [2], the IC50 was 9 nM.
In data set [1], `CN(C(=O)N1CC[C@H](n2cnc3cc(-c4ccc(Cl)cc4)sc3c2=O)C1)[C@H]1CCN(CC2CC2)C1` yielded a Ki of 3 nM. The compound further yielded an IC50 in data set [2] of 10 nM.
For the compound `CN(C(=O)N1CC[C@H](n2cnc3cc(-c4ccc(Cl)cc4)sc3c2=O)C1)[C@H]1CCNC1`, the Ki in data set [1] is 17 nM. The IC50 in data set [2] was found to be 29 nM.
For `CN1CC[C@H](N(C)C(=O)N2CC[C@H](n3cnc4cc(-c5ccc(Cl)cc5)sc4c3=O)C2)C1`, in data set [1], the Ki is 10 nM. In data set [2], this compound registered an IC50 of 20 nM. For the same compound, the Activity in data set [3] was determined as 99 µM. In addition, in data set [4], the CLint scaled was determined as 16 mL/min/kg.
Consider `CN(C(=O)N1CC[C@@H](n2cnc3cc(-c4ccc(Cl)cc4)sc3c2=O)C1)[C@H]1CCN(C2CCOCC2)C1`, for which the Ki in data set [1] is 154 nM.
For `CN(C(=O)N1CC[C@H](n2cnc3cc(-c4ccc5c(c4)OCCO5)sc3c2=O)C1)[C@H]1CCN(C2CCOCC2)C1`, the Ki in data set [1] was 45 nM.
In the case of `CN1CC[C@H](N(C)C(=O)N2CC[C@H](n3cnc4cc(-c5ccc(C(F)(F)F)cc5)sc4c3=O)C2)C1`, the Ki in data set [1] turned out to be 17 nM.
`CN(C(=O)N1CC[C@H](n2cnc3cc(-c4ccc(Cl)cc4)sc3c2=O)C1)[C@H]1CCN(CC2CCOCC2)C1` showed a Ki in data set [1] of 7 nM. The same compound gave an IC50 in data set [2] of 11 nM.
Regarding `CCOc1ccc(-c2cc3ncn([C@H]4CCN(C(=O)N(C)[C@H]5CCN(C)C5)C4)c(=O)c3s2)c(Cl)c1`, the Ki in data set [1] was found to be 26 nM.
Turning to `Cc1ccc(-c2cc3ncn([C@H]4CCN(C(=O)N(C)[C@H]5CCN(C6CCOCC6)C5)C4)c(=O)c3s2)c(C)c1`, affinity in data set [1] was put at a Ki of 70 nM.
In data set [1], `CN(C(=O)N1CC[C@H](n2cnc3cc(-c4ccc(Cl)cc4)sc3c2=O)C1)[C@H]1CCN(CC(=O)c2ccc(OC(F)(F)F)cc2)C1` came in with a Ki of 80 nM.
For `CN(C(=O)N1CCC(n2cnc3cc(-c4ccc(Cl)cc4)sc3c2=O)C1)[C@@H]1CCN(C2CCOCC2)C1` (single isomer, unassigned), the affinity in data set [1], expressed as Ki, was 21 nM.

Broadly, the Ki is the dissociation constant of the complex between target and ligand, obtained from inhibition or displacement. Broadly, the IC50 is the point on the concentration scale where inhibition reaches its midpoint. One may read the CLint scaled as a measure of how fast metabolising enzymes remove a compound, apart from limits set by blood flow. Low values mean greater metabolic stability, high ones faster metabolism. The term inhibition denotes the relative decrease from the control value, in per cent. Read a high inhibition as a strong effect.

(Values after ChEMBL document CHEMBL1147859, “Thienopyrimidinone bis-aminopyrrolidine ureas as potent melanin-concentrating hormone receptor-1 (MCH-R1) antagonists” (Bioorg Med Chem Lett, 2007).)
